Results reported in patent publication US9416182B2, “Anti-TNF-anti-IL-17 bispecific antibodies” (Eli Lilly and Company, priority 2013, dated 2016).

Legend:
[1] = tested on: human skin grafts on immunodeficient mice; assay: Humanized psoriasis mouse model (human skin grafts, PBMC injection); type: in vivo; settings: twice daily topical; after three weeks
Description: A humanized mouse model of psoriasis is a model that involves grafting of human non-lesional skin biopsies from psoriasis patients onto the back skin of immunodeficient mice. After the human skin has grafted (3 to 4 weeks later), T-cell activated human peripheral blood mononuclear cells (PBMCs) from the same donor are intradermally injected into the graft to induce psoriasis-like epidermal thickening (Wrone-Smith and Nickoloff J., Clin Invest. 15; 98(8):1878-87 (1996)).
After three weeks the mice are euthanized, the grafted skin was isolated, and the thickness of the epidermis is measured.

[2] = tested on: human TNFα and human IL-17; assay: Inhibition of CXCL1 production from HT-29 cells induced by combination of IL-17 and TNF; type: cell-based; settings: antibodies at fixed dose of 4 nM, 3 pM TNFα and 200 pM IL-17
Description: As described above, HT-29 cells are human colorectal adenocarcinoma epithelial cells that naturally express the IL-17 and TNF receptors. Incubation of HT-29 cells with human TNFα and human IL-17 results in the production of CXCL1, which can be measured using a commercially available ELISA.
Testing is carried out in five replicate wells per treatment. Assay medium is used for “medium alone” and “IL-17+TNF alone”. Anti-IL-17 antibody (U.S. Pat. No. 7,838,638); anti-TNFα antibody (adalimumab); and combination of anti-IL-17 antibody/anti-TNF antibody are used as controls in the assay. Control antibodies are tested at the same molar range as the bispecific antibody. […]
HT-29 cells are routinely cultured in assay medium [McCoy's 5A containing 10% FBS, penicillinG (0.2 U/mL) and streptomycin (0.2 mcg/mL)]. […] Cell density is measured with Invitrogen Countess, and 20,000 HT-29 cells (in 100 μL) are added to each of the 96-well plates. […]
At the end of the assay, the plates are centrifuged (500×g for 5 minutes at room temperature), and the cell culture medium is transferred to polypropylene 96-well plates, which are sealed and frozen at −80° C. […] CXCL1 levels in medium are measured with a CXCL1 sandwich ELISA (R&D Systems DuoSet #DY275), as per the manufacturer's instructions. At the end of the ELISA reactions, plates are read at 450 nm on a microplate reader (Molecular Devices VersaMax Tunable).

[3] = tested on: membrane bound human TNFα; assay: Inhibition of membrane bound human TNFα induced cytotoxicity in L929 cells; type: cell-based; settings: average of 3 independent experiments+/−SEM; read-out: IC50, killing of L929 cells by human non-cleavable membrane bound TNFα CHO cells
Description: The non-cleavable TNFα construct is stably transfected to Chinese hamster ovary (CHO) cells. These cells express membrane bound TNFα as shown by flow cytometry. Incubation of L929 cells with CHO cells expressing human non-cleavable membrane bound TNFα results in rapid L929 cell death.
CHO cells expressing membrane bound human TNFα are routinely maintained in selection medium (AM2001 media, an internal CHO growth media without MSX, 8 mM glutamine, GS supplement, HT supplement with 500 μg/mL G418). On the day of the assay, the cells are counted, rinsed with 1×PBS (no Ca^++ or Mg^++), centrifuged at 215×g for 5 mM and re-suspended at 50,000 cells/mL in L929 assay medium together with Actinomycin-D (6.25 μg/mL). 500 cells (in 10 μL) of cell suspension are added to each concentration of antibody mixtures that were incubated for 60 minutes at 37° C., 95% relative humidity, 5% CO2. […] The cell death is measured using an MTT cytotoxicity assay as described above for soluble TNFα L929 assay.

[4] = biological target: human TNFα (Homo sapiens, UniProt P01375); assay: Inhibition of human TNFα-induced production of CXCL1 in vivo; parameters: species or system mouse; settings: C57BI/6J mice; 16.7 nmol/kg subcutaneously; TNFα challenge two days later; plasma two hours after challenge
Description: Two days later, mice receive a single intraperitoneal injection of human IL-17 (3 μg/mouse) or human TNFα (1 μg/mouse). Two hours after cytokine challenge, the mice are sacrificed and plasma is analyzed for CXCL1 using a commercial ELISA.

membrane bound human TNFα, sequence (P01375 89-233 limits assumed): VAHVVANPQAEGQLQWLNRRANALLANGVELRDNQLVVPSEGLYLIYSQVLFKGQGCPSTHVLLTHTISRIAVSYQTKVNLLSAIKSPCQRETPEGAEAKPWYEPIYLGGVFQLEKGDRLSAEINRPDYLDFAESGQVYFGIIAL
human TNFα, sequence (P01375 77-233 limits assumed): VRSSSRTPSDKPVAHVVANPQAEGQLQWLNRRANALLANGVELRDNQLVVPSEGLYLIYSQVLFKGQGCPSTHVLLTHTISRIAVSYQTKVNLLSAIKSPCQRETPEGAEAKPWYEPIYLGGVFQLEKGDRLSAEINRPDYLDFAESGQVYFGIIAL

C[C@H]1C[C@H]2[C@@H]3CCC4=CC(=O)C=C[C@]4(C)[C@@]3(F)[C@@H](O)C[C@]2(C)[C@@]1(O)C(=O)CO [Betamethasone, betamethasone]
Mean Epidermal Thickness [1]: 74.9 μm

adalimumab [anti-TNFα]
percent human CXCL1 left after incubation (TNF+IL-17 alone being 100%) [2]: 8.97+/−2.65%

adalimumab with IgG4 isotype: TNFα neutralizing antibody (adalimumab with IgG4 isotype), positive control in L929 assays and in vivo CXCL1 (Table 2)
IC50 [3]: 669 pM
Average % inhibition of human TNFα-induced CXCL1 production in vivo [4]: 89.4 ± 2%
